In the data set the target is SOD1. Conditions: ASO.

“And” between values parts separate entries of the source, which are not always exact repeats. Identical values can stand only once. After the bases stand the sugars from the 5' end (letter, count) and the backbone: PS all phosphorothioate, else s phosphorothioate and o phosphodiester by linkage. Methylation of C is not given here. e = 2'-O-(2-methoxyethyl) (MOE); k = constrained ethyl (cEt); d = 2'-deoxy (DNA)

“ATCCATGCAGGCCTTCA (sugars e3 k2 d7 k2 e3, PS)” had a target mRNA inhibition (HepG2, 3 µM) of 27%.

For “CTACAGCTAGCAGGATA (sugars e2 k2 d8 k2 e3, PS)”, the target mRNA inhibition is, setting by setting: (HepG2, 0.1875 µM) 40%; (HepG2, 0.75 µM) 79%; (HepG2, 3 µM) 89%; (HepG2, 4 µM) 87%; (HepG2, 12 µM) 94%.

Take “GACAAGTTTAATACCCA (sugars e3 k2 d7 k2 e3, PS)”: the target mRNA inhibition (HepG2, 3 µM) amounted to 24%.

“ACTGGTCCATTACTTTC (sugars e3 k2 d7 k2 e3, PS)” had a target mRNA inhibition (HepG2, 3 µM) of 14%.

For “TGATCATAAATCAGTTT (sugars e2 k2 d9 k2 e2, PS)”, for the setting “HepG2, 5 µM”, the target mRNA inhibition came to 38%.

Under “HepG2, 5 µM”, “TAATAAGTGCCATACAG (sugars e2 k2 d8 k2 e3, PS)” showed a target mRNA inhibition of 22%.

For “AAACTATACAAATCTTC (sugars e2 k2 d9 k2 e2, PS)”, the target mRNA inhibition (HepG2, 5 µM) amounted to 55%.

In turn, “ATGTTTATCAGGATACA (sugars e4 d8 e5, linkages s1 o2 s9 o2 s2)” registered a target mRNA inhibition (A431, 0.062 µM) of 0%; a target mRNA inhibition (A431, 0.185 µM) of 4%; a target mRNA inhibition (A431, 0.556 µM) of 10%; a target mRNA inhibition (A431, 1.667 µM) of 33%; a target mRNA inhibition (A431, 5 µM) of 56%; a target mRNA inhibition (A431, 15 µM) of 50%. The target mRNA inhibition is, setting by setting: (SH-SY5Y, 0.062 µM) 0%; (SH-SY5Y, 0.185 µM) 4%; (SH-SY5Y, 0.556 µM) 32%; (SH-SY5Y, 1.667 µM) 37%; (SH-SY5Y, 5 µM) 61%; (SH-SY5Y, 15 µM) 83%.

Sequence “CAGTGTTTAATGTTTAT (sugars e3 k2 d7 k2 e3, PS)” had a target mRNA inhibition (HepG2, 3 µM) of 54%.

Regarding “ACAGTGTTTAATGTTTA (sugars e3 k2 d7 k2 e3, linkages s1 o2 s9 o2 s2)”, the target mRNA inhibition reads like this: (A431, 0.12 µM) 12%; (A431, 0.6 µM) 26%; (A431, 3 µM) 45%; (A431, 15 µM) 47%; (HepG2, 0.222 µM) 51%; (HepG2, 0.667 µM) 70%. Also, the target mRNA inhibition is, setting by setting: (HepG2, 2 µM) 80%; (HepG2, 6 µM) 74%.

For “GATACATTTCTACAGCT (sugars e2 k2 d9 k2 e2, PS)”, the target mRNA inhibition amounted to 0% (HepG2, 0.1875 µM); 45% (HepG2, 0.75 µM); 75% (HepG2, 3 µM); 77% (HepG2, 4 µM); 97% (HepG2, 12 µM).

The sequence “CTGGTCCATTACTTTCC (sugars e3 k2 d7 k2 e3, PS)” showed a target mRNA inhibition (HepG2, 3 µM) of 11%.

In turn, “ACAGGTACTTTAAAGCA (sugars e2 k2 d8 k2 e3, PS)” showed a target mRNA inhibition (HepG2, 5 µM) of 14%.

With “TAAGTGCCATACAGGGT (sugars e2 k2 d9 k2 e2, PS)”, under “HepG2, 5 µM”, the target mRNA inhibition was 35%.

As to “TTCATTTCCACCTTTGC (sugars e3 k2 d7 k2 e3, PS)”, the target mRNA inhibition (HepG2, 3 µM) worked out at 33%.

The sequence “AGTTTCTCACTACAGGT (sugars e2 k2 d8 k2 e3, PS)” gave a target mRNA inhibition (HepG2, 5 µM) of 33%.

As to “CAGGATAACAGATGAGT (sugars e3 k2 d7 k2 e3, PS)”, the target mRNA inhibition (HepG2, 0.1875 µM) is 45%; the target mRNA inhibition (HepG2, 0.75 µM) was found to be 72%; the target mRNA inhibition (HepG2, 3 µM) is 65% and 86%; the target mRNA inhibition (HepG2, 12 µM) came out at 92%.

“CCGCGCCTCGCCCACTCTGG (sugars e5 d10 e5, PS)” showed a target mRNA inhibition (HepG2, 4 µM) of 27%.

Under “HepG2, 5 µM”, “AAACAGACATTTTAACTGAG (sugars e5 d10 e5, PS)” gave a target mRNA inhibition of 4%.

Sequence “TTCTCACTACAGGTACT (sugars e2 k2 d8 k2 e3, PS)” returned a target mRNA inhibition (HepG2, 5 µM) of 26%.

For the setting “HepG2, 3 µM”, “GCCGTCGCCCTTCAGCA (sugars e3 k2 d7 k2 e3, PS)” yielded a target mRNA inhibition of 33%.

Under “HepG2, 5 µM”, “AGGTACTTTAAAGCAAC (sugars e2 k2 d8 k2 e3, PS)” registered a target mRNA inhibition of 35%.

Sequence “TTTATTCACAGGCTTGA (sugars e2 k2 d9 k2 e2, PS)” yielded a target mRNA inhibition (HepG2, 5 µM) of 55%.

With “GATCCCAATTACACCAC (sugars e2 k2 d8 k2 e3, PS)”, where the note is “HepG2, 4 µM”, the target mRNA inhibition was determined as 41%.

Regarding “GGCGATCCCAATTACACCAC (sugars e6 d9 e5, linkages s1 o4 s10 o2 s2)”, the target mRNA inhibition came to 0% (A431, 0.062 µM); 0% (A431, 0.185 µM); 0% (A431, 0.556 µM); 0% (A431, 1.667 µM); 4% (A431, 5 µM); 0% (A431, 15 µM). In addition, the target mRNA inhibition by setting is: (SH-SY5Y, 0.062 µM) 0%; (SH-SY5Y, 0.185 µM) 3%; (SH-SY5Y, 0.556 µM) 20%; (SH-SY5Y, 1.667 µM) 38%; (SH-SY5Y, 5 µM) 61%; (SH-SY5Y, 15 µM) 84%.

As for “TTAATGTTTATCAGGATA (sugars e5 d8 e5, linkages s1 o3 s9 o2 s2)”, the target mRNA inhibition reads like this: (A431, 0.12 µM) 18%; (A431, 0.6 µM) 7%; (A431, 3 µM) 11%; (A431, 15 µM) 9%; (HepG2, 0.222 µM) 0%; (HepG2, 0.667 µM) 17%. For the same sequence, the target mRNA inhibition is 47% (HepG2, 2 µM) and 72% (HepG2, 6 µM).

Sequence “TCAGACTACATCCAAGG (sugars e2 k2 d8 k2 e3, PS)” displayed a target mRNA inhibition (HepG2, 0.1875 µM) of 37%; a target mRNA inhibition (HepG2, 0.75 µM) of 71%; a target mRNA inhibition (HepG2, 3 µM) of 81%; a target mRNA inhibition (HepG2, 4 µM) of 79%; a target mRNA inhibition (HepG2, 12 µM) of 92%.

As to “GGAATGTTTATTGGGCG (sugars e2 k2 d8 k2 e3, PS)”, the target mRNA inhibition (HepG2, 4 µM) came to 37%.

Consider “TCCAAGGGAATGTTTAT (sugars e3 k2 d7 k2 e3, PS)”, for which the target mRNA inhibition (HepG2, 3 µM) worked out at 32%.

Regarding “ATAATAAGTGCCATACAGGG (sugars e5 d10 e5, PS)”, the target mRNA inhibition (HepG2, 5 µM) came to 18%.

Sequence “GGCGATCCCAATTACAC (sugars e2 k2 d8 k2 e3, PS)” displayed a target mRNA inhibition (HepG2, 4 µM) of 33%.

“GATACATTTCTACAGCT (sugars e3 k2 d7 k2 e3, PS)” registered a target mRNA inhibition (HepG2, 3 µM) of 40%.

As to “CTCCAACATGCCTCTCT (sugars e3 k2 d7 k2 e3, PS)”, the target mRNA inhibition (HepG2, 3 µM) came out at 5%.

On to “TTTTTATTCACAGGCTT (sugars e3 k2 d7 k2 e3, PS)”, for which the target mRNA inhibition (HepG2, 3 µM) was 31%.

Regarding “GTGATCATAAATCAGTTTCT (sugars e5 d10 e5, PS)”, the target mRNA inhibition (HepG2, 5 µM) came to 37%.

Turning to “TACAAATCTTCCAAGTG (sugars e3 k2 d7 k2 e3, PS)”, for the setting “HepG2, 3 µM”, the target mRNA inhibition worked out at 17%.

On to “CAGGCCTTCAGTCAGTCCTT (sugars e5 d10 e5, PS)”, for which the target mRNA inhibition (HepG2, 5 µM) was 56% and 51%.

As for “AAATCTTCCAAGTGATC (sugars e2 k2 d8 k2 e3, PS)”, the target mRNA inhibition (HepG2, 5 µM) came out at 46%.

The sequence “GACGCAAACCAGCACCCCGT (sugars e5 d10 e5, PS)” came in with a target mRNA inhibition (HepG2, 4 µM) of 45%.

For “CAGTGTTTAATGTTTA (sugars ekddddddddekekee, linkages s1 o1 s8 o3 s2)”, the target mRNA inhibition by setting is: (A431, 0.12 µM) 8%; (A431, 0.6 µM) 26%; (A431, 3 µM) 57%; (A431, 15 µM) 76%; (HepG2, 0.222 µM) 54%; (HepG2, 0.667 µM) 79%. The target mRNA inhibition runs as follows: (HepG2, 2 µM) 84%; (HepG2, 6 µM) 88%.

On to “CCTGCACTGGTACAGCC (sugars e3 k2 d7 k2 e3, PS)”, for which the target mRNA inhibition (HepG2, 3 µM) came to 17%.

These data come from the OligoGym collection.
